Where “and” joins values, the source holds several entries; their conditions need not be identical. Equal values may be shown once. Toxic doses and inconclusive results are not listed. Rule for the calls: active = survival T/C of 150% or more; inactive = T/C below 125% in these data.
System: P388 leukemia ip, CD2F1 mice, survival T/C
Test: NCI In Vivo Anticancer Drug Screen. Data for tumor model P388 Leukemia (intraperitoneal) in CD2F1 (CDF1) mice
Conditions: endpoint: median survival time, higher = longer survival
Procedure, shortened: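 Mice carrying the transplanted tumor received test compound or vehicle. Survival was recorded in each group, and the value is the treated-group measurement divided by that of the vehicle-treated control group.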

[1] = dose: 60.0 mg/kg/injection, schedule: Q01DX005 (ip), vehicle: Klucel (hydroxypropylcellulose) (HPC)
[2] = dose: 120.0 mg/kg/injection, schedule: Q01DX005 (ip), vehicle: Klucel (hydroxypropylcellulose) (HPC)
[3] = dose: 240.0 mg/kg/injection, schedule: Q01DX005 (ip), vehicle: Klucel (hydroxypropylcellulose) (HPC)
[4] = dose: 50.0 mg/kg/injection, schedule: Q01DX009 (ip), vehicle: saline with Tween-80
[5] = dose: 100.0 mg/kg/injection, schedule: Q01DX001 (ip), vehicle: Klucel (hydroxypropylcellulose) (HPC)
[6] = dose: 200.0 mg/kg/injection, schedule: Q01DX001 (ip), vehicle: Klucel (hydroxypropylcellulose) (HPC)
[7] = dose: 400.0 mg/kg/injection, schedule: Q01DX001 (ip), vehicle: Klucel (hydroxypropylcellulose) (HPC)
[8] = dose: 100.0 mg/kg/injection, schedule: Q04DX003 (ip), vehicle: saline with Tween-80
[9] = dose: 200.0 mg/kg/injection, schedule: Q04DX003 (ip), vehicle: saline with Tween-80
[10] = dose: 50.0 mg/kg/injection, schedule: Q01DX005 (ip), vehicle: saline with Tween-80
[11] = dose: 100.0 mg/kg/injection, schedule: Q01DX005 (ip), vehicle: saline with Tween-80
[12] = dose: 50.0 mg/kg/injection, schedule: Q01DX005 (ip), vehicle: Klucel (hydroxypropylcellulose) (HPC)
[13] = dose: 100.0 mg/kg/injection, schedule: Q01DX005 (ip), vehicle: Klucel (hydroxypropylcellulose) (HPC)
[14] = dose: 200.0 mg/kg/injection, schedule: Q01DX005 (ip), vehicle: Klucel (hydroxypropylcellulose) (HPC)
[15] = dose: 200.0 mg/kg/injection, schedule: Q01DX005 (ip), vehicle: saline with Tween-80
[16] = dose: 60.0 mg/kg/injection, schedule: Q01DX005 (ip), vehicle: saline with Tween-80
[17] = dose: 120.0 mg/kg/injection, schedule: Q01DX005 (ip), vehicle: saline with Tween-80
[18] = dose: 240.0 mg/kg/injection, schedule: Q01DX005 (ip), vehicle: saline with Tween-80
[19] = dose: 25.0 mg/kg/injection, schedule: Q01DX005 (ip), vehicle: Klucel (hydroxypropylcellulose) (HPC)
[20] = dose: 50.0 mg/kg/injection, schedule: Q01DX009 (ip), vehicle: water
[21] = dose: 100.0 mg/kg/injection, schedule: Q01DX009 (ip), vehicle: water
[22] = dose: 200.0 mg/kg/injection, schedule: Q01DX009 (ip), vehicle: water

Measured: T/C

CC(C)CCCC(C)C1CCC2C3CCC4C5Oc6ccccc6N=C5CCC4(C)C3CCC12C (stereo unspecified)
inactive: [1] 92 % of control | [2] 97 % of control | [3] 93 % of control

C=C(C)C(=O)Nc1ccc(NC(C)C)cc1
inactive: dose: 12.5 mg/kg/injection, schedule: Q01DX009 (ip), vehicle: saline with Tween-80 115 % of control | dose: 12.5 mg/kg/injection, schedule: Q01DX009 (ip), vehicle: saline 105 % of control | dose: 25.0 mg/kg/injection, schedule: Q01DX009 (ip), vehicle: saline with Tween-80 108 % of control | dose: 25.0 mg/kg/injection, schedule: Q01DX009 (ip), vehicle: saline 97 % of control | [4] 93 % of control and 96 % of control | dose: 50.0 mg/kg/injection, schedule: Q01DX009 (ip), vehicle: saline 90 % of control | dose: 100.0 mg/kg/injection, schedule: Q01DX009 (ip), vehicle: saline 102 % of control

Cc1ccc(OP(=O)(Oc2ccc(C)cc2)Oc2ccc(C)cc2)cc1.Cc1ccc(OP(=O)(Oc2ccc(C)cc2)Oc2ccc(C)cc2)cc1.Cc1ccc(OP(=O)(Oc2ccc(C)cc2)Oc2ccc(C)cc2)cc1.Cc1ccc(OP(=O)(Oc2ccc(C)cc2)Oc2ccc(C)cc2)cc1.[Nd+3].[O-][Cl+3]([O-])([O-])O
inactive: [5] 90 % of control | [6] 91 % of control | [7] 86 % of control

O=C1c2ccccc2Cc2c(NCc3ccccc3)ncnc2N1Cc1ccccc1
inactive: [4] 104 % of control | dose: 100.0 mg/kg/injection, schedule: Q01DX009 (ip), vehicle: saline with Tween-80 101 % of control | dose: 200.0 mg/kg/injection, schedule: Q01DX009 (ip), vehicle: saline with Tween-80 90 % of control

O=S(=O)(Nc1ccccn1)c1ccc(N(CCCl)CCCl)cc1
inactive: [8] 95 % of control | [9] 95 % of control

Cc1c(COC(=O)NC(C)C)c(COC(=O)NC(C)C)c2n1CS(=O)(=O)C2
active: dose: 25.0 mg/kg/injection, schedule: Q01DX005 (ip), vehicle: saline with Tween-80 159 % of control | [10] 184 % of control and 188 % of control | [11] 218 % of control

Cc1noc2c1NC(=O)OCC2
inactive: [12] 101 % of control | [13] 95 % of control | [14] 97 % of control

CC(C)CC(NC(=O)OCC[P+](c1ccccc1)(c1ccccc1)c1ccccc1)C(=O)O (stereo unspecified)
inactive: dose: 6.25 mg/kg/injection, schedule: Q04DX003 (ip), vehicle: saline 102 % of control | dose: 12.5 mg/kg/injection, schedule: Q04DX003 (ip), vehicle: saline 105 % of control | dose: 25.0 mg/kg/injection, schedule: Q04DX003 (ip), vehicle: saline 112 % of control | dose: 50.0 mg/kg/injection, schedule: Q04DX003 (ip), vehicle: saline 121 % of control

CC(C)=C1C2C=CC1C1C2C(=O)C2OC2(CO)C1O (stereo unspecified)
inactive: [10] 100 % of control | [11] 100 % of control | [15] 101 % of control

O=S1(=O)C2CCC(Cl)C1CCC2Cl (stereo unspecified)
inactive: dose: 75.0 mg/kg/injection, schedule: Q04DX003 (ip), vehicle: Klucel (hydroxypropylcellulose) (HPC) 98 % of control | dose: 150.0 mg/kg/injection, schedule: Q04DX003 (ip), vehicle: Klucel (hydroxypropylcellulose) (HPC) 100 % of control

CCOC(=O)C1=C(C(=O)c2ccc(OC)cc2)C(c2c(Cl)cccc2Cl)C(C(=O)c2ccc(OC)cc2)=C(C(=O)OCC)N1
inactive: dose: 30.0 mg/kg/injection, schedule: Q01DX005 (ip), vehicle: saline with Tween-80 86 % of control | [16] 102 % of control and 93 % of control | [17] 94 % of control | [18] 93 % of control

C[N+](C)=c1ccc2nc3c(cc(Nc4ccccc4)c4ccccc43)oc-2c1
inactive: [1] 88 % of control | [2] 91 % of control | [3] 103 % of control

COC(=O)C1=C(/C=C/C(C)=O)NC(C)=C(C(=O)OC(C)C)C1c1ccccc1Cl (stereo unspecified)
inactive: [19] 105 % of control | [12] 99 % of control and 108 % of control and 96 % of control | [13] 102 % of control and 104 % of control and 113 % of control | [14] 108 % of control and 116 % of control

O=C(N/N=C/c1cc(Cl)ccc1O)C(=O)N/N=C/c1cc(Cl)ccc1O
inactive: [20] 92 % of control | [21] 92 % of control | [22] 100 % of control

CCCCc1c(O)c2c(=O)n(C)c(=O)n3c4ccccc4n(c1=O)c23
inactive: [16] 100 % of control | [17] 89 % of control | [18] 90 % of control

CC1=NCCN=C(C)C1N=Nc1ccccc1
inactive: [8] 90 % of control | [9] 90 % of control

CNC(=O)OCc1nc(SC)n(-c2ccccc2)c1COC(=O)NC
inactive: dose: 12.5 mg/kg/injection, schedule: Q01DX005 (ip), vehicle: distilled water + Tween-80 99 % of control | dose: 25.0 mg/kg/injection, schedule: Q01DX005 (ip), vehicle: distilled water + Tween-80 101 % of control | dose: 50.0 mg/kg/injection, schedule: Q01DX005 (ip), vehicle: distilled water + Tween-80 99 % of control and 102 % of control and 92 % of control | dose: 100.0 mg/kg/injection, schedule: Q01DX005 (ip), vehicle: distilled water + Tween-80 101 % of control and 106 % of control and 108 % of control | dose: 200.0 mg/kg/injection, schedule: Q01DX005 (ip), vehicle: distilled water + Tween-80 113 % of control | dose: 400.0 mg/kg/injection, schedule: Q01DX005 (ip), vehicle: distilled water + Tween-80 99 % of control

O=C(NNC(=O)c1cccc(C(=O)NNC(=O)c2ccc(Cl)c(Cl)c2)n1)c1ccc(Cl)c(Cl)c1
inactive: dose: 12.5 mg/kg/injection, schedule: Q01DX009 (ip), vehicle: Klucel (hydroxypropylcellulose) (HPC) 106 % of control and 98 % of control | dose: 25.0 mg/kg/injection, schedule: Q01DX009 (ip), vehicle: Klucel (hydroxypropylcellulose) (HPC) 108 % of control and 95 % of control | dose: 50.0 mg/kg/injection, schedule: Q01DX009 (ip), vehicle: Klucel (hydroxypropylcellulose) (HPC) 105 % of control and 122 % of control | dose: 100.0 mg/kg/injection, schedule: Q01DX009 (ip), vehicle: Klucel (hydroxypropylcellulose) (HPC) 119 % of control

CS(=O)(=O)OC1COCC1OS(C)(=O)=O (stereo unspecified)
inactive: [5] 95 % of control | dose: 100.0 mg/kg/injection, schedule: Q04DX003 (ip), vehicle: Klucel (hydroxypropylcellulose) (HPC) 99 % of control | [6] 95 % of control | dose: 200.0 mg/kg/injection, schedule: Q04DX003 (ip), vehicle: Klucel (hydroxypropylcellulose) (HPC) 100 % of control | [7] 100 % of control | dose: 400.0 mg/kg/injection, schedule: Q04DX003 (ip), vehicle: Klucel (hydroxypropylcellulose) (HPC) 107 % of control

COc1ccc2nc(C)c3c(c2c1)C(=O)N(CCCN1CCN(CCCN2C(=O)c4c(C)nc5ccc(OC)cc5c4C2=O)CC1)C3=O
inactive: dose: 6.25 mg/kg/injection, schedule: Q01DX005 (ip), vehicle: Klucel (hydroxypropylcellulose) (HPC) 93 % of control | dose: 12.5 mg/kg/injection, schedule: Q01DX005 (ip), vehicle: Klucel (hydroxypropylcellulose) (HPC) 90 % of control | [19] 96 % of control

Cc1cccc(/C=N/Nc2nc3ccccc3s2)n1
inactive: dose: 6.25 mg/kg/injection, schedule: Q01DX005 (ip), vehicle: saline with Tween-80 90 % of control | dose: 12.5 mg/kg/injection, schedule: Q01DX005 (ip), vehicle: saline with Tween-80 89 % of control | [15] 99 % of control

CC(C)C1NC(=O)C2=CN(Cc3ccccc3)C=CC2NC(=O)C(C(C)C)NC(=O)C2=CN(Cc3ccccc3)C=CC2NC1=O (stereo unspecified)
inactive: [16] 94 % of control | [17] 100 % of control | [18] 97 % of control

CC(=O)NC(C(=O)O)C(C)(C)S (stereo unspecified)
inactive: [12] 100 % of control | [13] 100 % of control | [14] 95 % of control

CN(C)CC(O)Cn1ccnc1[N+](=O)[O-] (stereo unspecified)
inactive: dose: 12.5 mg/kg/injection, schedule: Q01DX009 (ip), vehicle: water 101 % of control | dose: 25.0 mg/kg/injection, schedule: Q01DX009 (ip), vehicle: water 101 % of control | [20] 111 % of control | [21] 111 % of control | [22] 113 % of control

CNC(=O)O/N=C(\CN=[N+]=[N-])C(C)(C)C
inactive: dose: 0.78 mg/kg/injection, schedule: Q01DX009 (ip), vehicle: saline with Tween-80 93 % of control

Source: PubChem BioAssay AID330 (DTP/NCI, 2004)
